Source: article PMC11544713, “The Application of Untargeted Metabolomic Approaches for the Search of Common Bioavailable Metabolites in Human Plasma Samples from Lippia citriodora and Olea europaea Extracts” (Journal of Agricultural and Food Chemistry, 2024)

Test: Acute intervention: nutrikinetics of plasma metabolites after ingestion of L. citriodora extract (untargeted HPLC-ESI-QTOF-MS)
Procedure: A total of 25 healthy individuals participated, with an average age of 27 ± 9 years and a mean body mass index (BMI) of 23 ± 3 kg/m^2. None of the participants were taking any medications or nutritional supplements nor did they have any chronic diseases or gastrointestinal issues. The sample size was established based on findings from previous bioavailability research.[14] All participants provided informed consent before participating in the study.
The intervention study was carried out at Miguel Hernández University. Following an overnight fast, the volunteers were categorized into the subsequent groups: a subgroup to evaluate the LC leaf extract (n = 8), another for the OE leaf extract (n = 8), and the placebo subgroup (n = 9). This was a double-blind study, in which sample collection and treatment were carried out uniformly across all three subgroups.
Water was provided ad libitum. Prior to the ingestion of the capsule, a nurse inserted a cannula into the ulnar vein of each volunteer’s nondominant arm, and blood samples were drawn into EDTA-coated tubes at baseline (t = 0). Blood samples were then collected at 0.5, 1, 2, 4, 6, 8, and 10 h after the consumption of the 500 mg capsule. Plasma was separated through centrifugation (10 min at 3000 rpm and 4 °C) and stored at −80 °C until further analysis.
Plasma samples were initially treated using a mixture of methanol and ethanol (50:50; v:v) to remove proteins, following previously reported protocols.[19] During the sample treatment, pooled quality controls (pooled-QC) were prepared by combining equal aliquots from each sample. These QC samples were processed by using the same protocols as the experimental biological samples.
A reversed-phase analytical C18 column (Agilent Zorbax Eclipse Plus, 1.8 μm, 4.6 × 150 mm^2) with a protective cartridge with the same packing was used. MS data were acquired in negative ionization mode, operating in full scan across a mass-to-charge ratio (m/z) range of 50–1700. The analytical method used was adapted from that described by Villegas-Aguilar et al.[19]
Metabolite nutrikinetics were studied using PKSolver, an add-in program for pharmacokinetic data analysis in Microsoft Excel. The time to reach the maximum concentration (observed Tmax) was calculated for each significant metabolite. As an untargeted metabolomic approach was used to detect the circulating metabolites, these were not quantified. Therefore, the maximum concentration (Cmax) and area under the curve (AUC) parameters were calculated in a relative way by using the deconvoluted chromatographic areas. […] Statistical differences were determined by unpaired t tests. All p values less than 0.05 were considered statistically significant.

[1] = 0.5 h after L. citriodora extract
[2] = 1 h after L. citriodora extract
[3] = 2 h after L. citriodora extract
[4] = 4 h after L. citriodora extract
[5] = 6 h after L. citriodora extract
[6] = 8 h after L. citriodora extract
[7] = 10 h after L. citriodora extract
[8] = human plasma, 500 mg capsule of L. citriodora (LC) extract, oral, mean ± SD

Compound | mean chromatographic area in plasma, T0.5 [1] | mean chromatographic area in plasma, T1 [2] | mean chromatographic area in plasma, T2 [3] | mean chromatographic area in plasma, T4 [4] | mean chromatographic area in plasma, T6 [5] | mean chromatographic area in plasma, T8 [6] | mean chromatographic area in plasma, T10 [7] | AUC: area under the zero-moment curve [8] | Cmax: relative maximum plasma level [8] | observed Tmax: time required to reach Cmax [8] | AUC: area under the zero-moment curve (human, in vivo, po, 500 mg) | Cmax: relative maximum plasma level (human, in vivo, po, 500 mg) | observed Tmax: time required to reach Cmax (human, in vivo, po, 500 mg) | mean chromatographic area in plasma, T0.5 (in vivo) | mean chromatographic area in plasma, T1 (in vivo) | mean chromatographic area in plasma, T2 (in vivo) | mean chromatographic area in plasma, T4 (in vivo) | mean chromatographic area in plasma, T6 (in vivo) | mean chromatographic area in plasma, T8 (in vivo) | mean chromatographic area in plasma, T10 (in vivo) | also measured
C=C(C)[C@@H]1[C@H]2OC(=O)[C@@H]1[C@]1(O)C[C@H]3O[C@]34C(=O)O[C@H]2[C@]14C [picrotoxinin] | 32 | 102 | 91 | 0 | 0 | 0 | 0 | 231 ± 102 relative chromatographic area/h | 136 ± 44 relative chromatographic area | 1.3 ± 0.5 h |  |  |  |  |  |  |  |  |  |  | 
C[C@@H]1O[C@@H](O[C@@H]2[C@@H](O)[C@H](OCCc3ccc(O)c(O)c3)O[C@H](CO)[C@H]2OC(=O)/C=C/c2ccc(O)c(O)c2)[C@H](O)[C@H](O)[C@H]1O [verbascoside] |  |  |  |  |  |  |  |  |  |  |  |  |  |  |  |  |  |  |  |  | detection in plasma samples (native form or phase II metabolites) (in vivo): has not been detected in plasma samples
COc1cc(CCCO)ccc1OC1OC(CO)C(O)C(O)C1O (single isomer, unassigned; isomer 2) [dihydroconiferin isomer 2, dihydroconiferin] | 34 | 136 | 83 | 0 | 0 | 0 | 0 | 244 ± 102 relative chromatographic area/h | 136 ± 28 relative chromatographic area | 1 ± 0 h |  |  |  |  |  |  |  |  |  |  | 
CC1=CC(=O)CC(C)(C)C1(O)/C=C/C(C)=C/COC1OC(CO)C(O)C(O)C1O (single isomer, unassigned; isomer 3) [abscisic alcohol 11-glucoside isomer 3, abscisic alcohol 11-glucoside] | 56 | 258 | 13 | 13 | 0 | 0 | 0 | 267 ± 94 relative chromatographic area/h | 258 ± 95 relative chromatographic area | 1 ± 0 h |  |  |  |  |  |  |  |  |  |  | 
COc1cc(/C=C/C(=O)O)ccc1O[C@@H]1O[C@H](C(=O)O)[C@@H](O)[C@H](O)[C@H]1O [ferulic acid 4-O-glucuronide] | 0 | 0 | 66 | 163 | 217 | 177 | 89 | 1304 ± 1975 relative chromatographic area/h | 282 ± 358 relative chromatographic area | 5 ± 2 h |  |  |  |  |  |  |  |  |  |  | 
gardoside [gardoside isomer 2] |  |  |  |  |  |  |  |  |  |  | 2015 ± 547 relative chromatographic area/h | 508 ± 110 relative chromatographic area | 2.3 ± 0.7 h | 123 | 328 | 480 | 284 | 151 | 51 | 15 | 
CC(C)=C1CC2(C)C(=CC1=O)CCC(OC1OC(CO)C(O)C(O)C1O)C2C (centres unmarked) [isopetasoside] | 95 | 394 | 200 | 25 | 14 | 0 | 0 | 722 ± 166 relative chromatographic area/h | 455 ± 162 relative chromatographic area | 2 ± 1 h |  |  |  |  |  |  |  |  |  |  | 
gardoside [gardoside isomer 1] |  |  |  |  |  |  |  |  |  |  | 608 ± 375 relative chromatographic area/h | 211 ± 72 relative chromatographic area | 2 ± 0 h | 0 | 85 | 211 | 86 | 27 | 0 | 0 | 
COc1cc(C(=O)O)ccc1OS(=O)(=O)O [vanillic acid 4-O-sulfate isomer 2, vanillic acid 4-O-sulfate] | 18 | 102 | 43 | 0 | 0 | 0 | 0 | 152 ± 118 relative chromatographic area/h | 119 ± 41 relative chromatographic area | 1.2 ± 0.4 h |  |  |  |  |  |  |  |  |  |  | 
CC1=CC(=O)CC(C)(C)C1(O)/C=C/C(C)=C/COC1OC(CO)C(O)C(O)C1O (single isomer, unassigned; isomer 1) [abscisic alcohol 11-glucoside isomer 1, abscisic alcohol 11-glucoside] | 50 | 188 | 61 | 0 | 0 | 0 | 0 | 259 ± 134 relative chromatographic area/h | 202 ± 82 relative chromatographic area | 1.2 ± 0.4 h |  |  |  |  |  |  |  |  |  |  | 
O=C(O)CCCCCCCCC(=O)O [sebacic acid isomer, sebacic acid] |  |  |  |  |  |  |  |  |  |  | 141 ± 86 relative chromatographic area/h | 119 ± 27 relative chromatographic area | 1.2 ± 0.4 h | 22 | 102 | 35 | 0 | 0 | 0 | 0 | 
O=C(O)C=Cc1ccc(OS(=O)(=O)O)c(O)c1 (single isomer, unassigned; isomer 2) [caffeic acid 4-sulfate isomer 2, caffeic acid 4-sulfate] |  |  |  |  |  |  |  |  |  |  | 1656 ± 1922 relative chromatographic area/h | 357 ± 268 relative chromatographic area | 3 ± 2 h | 0 | 67 | 277 | 266 | 189 | 129 | 22 | 
CC(O)/C=C\C/C=C\C/C=C\CCCCCCCC(=O)O (centres unmarked) [17-hydroxylinolenic acid] | 81 | 428 | 445 | 184 | 31 | 12 | 20 | 1621 ± 1914 relative chromatographic area/h | 335 ± 306 relative chromatographic area | 6 ± 4 h |  |  |  |  |  |  |  |  |  |  | 
pteroside Z [pteroside Z isomer 1] |  |  |  |  |  |  |  |  |  |  | 123 ± 53 relative chromatographic area/h | 120 ± 22 relative chromatographic area | 1.2 ± 0.4 h | 0 | 105 | 28 | 0 | 0 | 0 | 0 | 
